According to article PMC7827406, “Structure–Activity Relationship (SAR) Study of Spautin-1 to Entail the Discovery of Novel NEK4 Inhibitors” (International Journal of Molecular Sciences, 2021):
Like-named read-outs stand apart in the source and are kept apart here.

Columns and labels:
Test in all cases: biochemical
Parameters in all cases: Eurofins KinaseProfiler full panel at Km ATP, residual kinase activity (%) relative to DMSO
Ros(h) = molecular target: T1, Ros(h) (Homo sapiens, UniProt P08922)
T1 construct: gene ROS1
Outline: (§1)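 Compounds screened at 10 µM in radiometric kinase activity assays at Km ATP, reported as remaining kinase activity (%). A KINOMEscan competition-binding screen at 10 µM measured DNA-tagged kinase retained on immobilized active-site ligand by qPCR.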

CK2(h) = molecular target: T2, CK2(h) (Homo sapiens, UniProt P68400)
T2 construct: gene CSNK2A1
Outline: as §1

ULK3(h) = molecular target: T3, ULK3(h) (Homo sapiens, UniProt Q6PHR2)
T3 sequence (Q6PHR2 1-472): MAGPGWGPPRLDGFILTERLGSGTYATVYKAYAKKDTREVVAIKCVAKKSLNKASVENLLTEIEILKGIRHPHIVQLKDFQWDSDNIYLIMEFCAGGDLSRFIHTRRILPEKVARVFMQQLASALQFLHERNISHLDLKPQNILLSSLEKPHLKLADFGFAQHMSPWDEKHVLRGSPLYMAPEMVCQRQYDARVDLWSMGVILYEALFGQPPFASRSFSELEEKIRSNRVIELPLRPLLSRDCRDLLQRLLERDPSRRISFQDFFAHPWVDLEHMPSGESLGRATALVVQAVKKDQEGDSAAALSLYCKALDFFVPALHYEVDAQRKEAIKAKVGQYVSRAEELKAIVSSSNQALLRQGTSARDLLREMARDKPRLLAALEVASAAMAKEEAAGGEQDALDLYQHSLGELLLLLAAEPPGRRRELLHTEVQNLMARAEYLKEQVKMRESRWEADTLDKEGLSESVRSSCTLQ
Outline: as §1

TAK1(h) = molecular target: T4, TAK1(h) (Homo sapiens, UniProt O43318)
T4 construct: gene MAP3K7
T4 sequence (O43318 1-606): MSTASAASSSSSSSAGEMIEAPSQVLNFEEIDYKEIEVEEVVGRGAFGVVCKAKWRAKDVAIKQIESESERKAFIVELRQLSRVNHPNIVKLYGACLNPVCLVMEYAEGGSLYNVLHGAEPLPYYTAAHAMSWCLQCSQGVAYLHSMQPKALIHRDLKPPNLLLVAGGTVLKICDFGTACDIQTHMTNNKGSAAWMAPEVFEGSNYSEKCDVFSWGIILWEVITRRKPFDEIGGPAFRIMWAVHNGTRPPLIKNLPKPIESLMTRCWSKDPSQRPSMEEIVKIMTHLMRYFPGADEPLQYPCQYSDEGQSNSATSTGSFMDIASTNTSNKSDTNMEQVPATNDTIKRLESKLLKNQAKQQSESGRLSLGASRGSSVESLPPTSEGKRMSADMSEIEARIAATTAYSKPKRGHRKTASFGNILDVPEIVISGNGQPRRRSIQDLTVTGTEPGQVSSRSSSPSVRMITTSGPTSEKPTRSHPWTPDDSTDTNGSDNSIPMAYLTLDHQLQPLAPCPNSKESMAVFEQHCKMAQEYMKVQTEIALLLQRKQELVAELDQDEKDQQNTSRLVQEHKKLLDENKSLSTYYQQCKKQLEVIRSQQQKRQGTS
Outline: as §1

EphA2(h) = EphA2(h) (Homo sapiens, UniProt P29317)
Outline: as §1

TrkB(h) = molecular target: T5, TrkB(h) (Homo sapiens, UniProt Q16620)
T5 construct: gene NTRK2
Outline: as §1

cKit(D816V)(h) = molecular target: T6, cKit(D816V)(h) (Homo sapiens, UniProt P10721, D816V)
T6 construct: gene KIT
Outline: as §1

[1] = read-out: Residual activity (%) 5ay
[2] = read-out: Residual activity (%) Spautin-1 5aa
[3] = read-out: Residual activity (%) 5at
[4] = read-out: Residual activity (%) 5as

T1 sequence (P08922 whole entry): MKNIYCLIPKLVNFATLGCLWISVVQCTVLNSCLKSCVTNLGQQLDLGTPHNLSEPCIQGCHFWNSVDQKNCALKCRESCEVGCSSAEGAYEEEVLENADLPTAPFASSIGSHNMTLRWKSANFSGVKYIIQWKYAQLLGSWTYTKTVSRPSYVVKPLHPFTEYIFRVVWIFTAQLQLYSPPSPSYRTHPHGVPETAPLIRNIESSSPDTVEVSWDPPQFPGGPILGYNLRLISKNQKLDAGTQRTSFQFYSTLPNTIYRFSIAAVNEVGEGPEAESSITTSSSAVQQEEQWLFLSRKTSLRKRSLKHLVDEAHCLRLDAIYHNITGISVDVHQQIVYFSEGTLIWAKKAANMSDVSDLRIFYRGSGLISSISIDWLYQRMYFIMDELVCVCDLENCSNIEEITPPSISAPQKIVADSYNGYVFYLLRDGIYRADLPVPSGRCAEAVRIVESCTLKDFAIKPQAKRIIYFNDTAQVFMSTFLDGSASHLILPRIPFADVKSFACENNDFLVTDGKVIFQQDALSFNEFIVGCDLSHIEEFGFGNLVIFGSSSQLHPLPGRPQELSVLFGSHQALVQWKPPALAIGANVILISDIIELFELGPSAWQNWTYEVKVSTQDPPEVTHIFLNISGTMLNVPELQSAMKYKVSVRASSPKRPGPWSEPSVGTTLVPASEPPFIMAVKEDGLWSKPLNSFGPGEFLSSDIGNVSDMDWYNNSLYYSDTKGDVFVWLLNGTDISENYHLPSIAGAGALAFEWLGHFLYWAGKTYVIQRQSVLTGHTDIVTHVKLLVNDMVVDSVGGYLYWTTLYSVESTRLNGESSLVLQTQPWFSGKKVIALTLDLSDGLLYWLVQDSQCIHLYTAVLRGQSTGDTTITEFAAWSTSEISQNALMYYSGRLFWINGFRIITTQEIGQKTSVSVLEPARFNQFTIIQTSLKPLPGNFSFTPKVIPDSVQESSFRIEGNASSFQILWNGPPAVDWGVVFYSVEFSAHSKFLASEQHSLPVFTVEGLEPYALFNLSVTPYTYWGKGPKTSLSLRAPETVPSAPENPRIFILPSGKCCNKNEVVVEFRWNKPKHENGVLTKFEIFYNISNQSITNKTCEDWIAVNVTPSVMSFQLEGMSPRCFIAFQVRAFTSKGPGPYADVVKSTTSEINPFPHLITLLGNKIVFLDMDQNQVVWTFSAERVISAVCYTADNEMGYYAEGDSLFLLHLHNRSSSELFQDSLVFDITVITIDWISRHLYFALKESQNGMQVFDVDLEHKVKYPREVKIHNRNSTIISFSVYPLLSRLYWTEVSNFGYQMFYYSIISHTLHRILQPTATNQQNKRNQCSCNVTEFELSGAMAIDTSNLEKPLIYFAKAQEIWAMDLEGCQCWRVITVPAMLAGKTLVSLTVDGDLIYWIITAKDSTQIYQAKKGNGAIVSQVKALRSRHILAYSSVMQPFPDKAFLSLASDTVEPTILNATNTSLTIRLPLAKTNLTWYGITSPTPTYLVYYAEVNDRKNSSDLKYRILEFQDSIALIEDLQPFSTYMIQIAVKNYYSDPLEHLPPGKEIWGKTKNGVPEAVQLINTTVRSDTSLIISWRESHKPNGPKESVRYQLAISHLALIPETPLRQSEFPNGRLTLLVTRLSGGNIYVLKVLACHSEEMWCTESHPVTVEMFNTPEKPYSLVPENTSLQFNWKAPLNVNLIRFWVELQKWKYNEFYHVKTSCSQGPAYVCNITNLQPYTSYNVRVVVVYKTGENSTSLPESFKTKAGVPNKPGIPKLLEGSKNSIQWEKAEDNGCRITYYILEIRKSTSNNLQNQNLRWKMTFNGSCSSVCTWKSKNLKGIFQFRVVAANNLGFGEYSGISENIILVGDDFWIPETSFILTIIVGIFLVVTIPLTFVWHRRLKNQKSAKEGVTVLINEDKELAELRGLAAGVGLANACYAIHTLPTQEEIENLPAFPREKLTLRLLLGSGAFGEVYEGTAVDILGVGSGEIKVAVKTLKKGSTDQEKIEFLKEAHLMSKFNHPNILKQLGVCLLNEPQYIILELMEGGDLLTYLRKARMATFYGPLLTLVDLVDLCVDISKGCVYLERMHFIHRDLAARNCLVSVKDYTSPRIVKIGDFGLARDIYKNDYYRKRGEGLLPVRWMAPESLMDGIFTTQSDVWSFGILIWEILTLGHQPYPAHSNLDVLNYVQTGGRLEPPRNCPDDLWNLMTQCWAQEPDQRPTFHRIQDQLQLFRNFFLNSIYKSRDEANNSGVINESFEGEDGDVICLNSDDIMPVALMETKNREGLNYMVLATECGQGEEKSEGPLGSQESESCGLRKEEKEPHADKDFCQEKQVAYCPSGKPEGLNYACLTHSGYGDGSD
T6 sequence (P10721 whole entry D816V): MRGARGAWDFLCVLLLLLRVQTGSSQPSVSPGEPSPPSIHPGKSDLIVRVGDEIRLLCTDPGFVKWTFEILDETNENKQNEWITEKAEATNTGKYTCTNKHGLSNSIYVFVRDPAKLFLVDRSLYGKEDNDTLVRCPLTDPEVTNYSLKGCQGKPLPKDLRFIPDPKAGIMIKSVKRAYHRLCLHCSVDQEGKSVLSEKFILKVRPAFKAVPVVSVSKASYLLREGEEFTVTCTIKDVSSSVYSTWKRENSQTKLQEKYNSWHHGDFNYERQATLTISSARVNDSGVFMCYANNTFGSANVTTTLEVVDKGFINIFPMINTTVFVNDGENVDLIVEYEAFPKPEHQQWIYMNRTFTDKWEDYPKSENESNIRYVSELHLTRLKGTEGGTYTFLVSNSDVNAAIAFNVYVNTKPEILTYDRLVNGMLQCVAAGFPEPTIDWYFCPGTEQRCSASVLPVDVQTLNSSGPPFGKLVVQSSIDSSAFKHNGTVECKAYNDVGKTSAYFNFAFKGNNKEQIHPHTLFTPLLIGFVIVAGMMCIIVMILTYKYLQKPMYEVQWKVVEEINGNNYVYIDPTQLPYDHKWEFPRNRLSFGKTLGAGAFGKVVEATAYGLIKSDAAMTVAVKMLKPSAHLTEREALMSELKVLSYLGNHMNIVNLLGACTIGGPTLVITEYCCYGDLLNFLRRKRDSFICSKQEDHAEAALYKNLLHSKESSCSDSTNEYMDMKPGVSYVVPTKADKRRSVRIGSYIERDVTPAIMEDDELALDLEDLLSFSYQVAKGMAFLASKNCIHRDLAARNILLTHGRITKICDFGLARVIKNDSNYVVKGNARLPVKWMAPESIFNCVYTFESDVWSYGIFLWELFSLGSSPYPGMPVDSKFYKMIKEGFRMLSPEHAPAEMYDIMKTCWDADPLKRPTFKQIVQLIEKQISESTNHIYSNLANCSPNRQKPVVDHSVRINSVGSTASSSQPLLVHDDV
T5 sequence (Q16620 whole entry): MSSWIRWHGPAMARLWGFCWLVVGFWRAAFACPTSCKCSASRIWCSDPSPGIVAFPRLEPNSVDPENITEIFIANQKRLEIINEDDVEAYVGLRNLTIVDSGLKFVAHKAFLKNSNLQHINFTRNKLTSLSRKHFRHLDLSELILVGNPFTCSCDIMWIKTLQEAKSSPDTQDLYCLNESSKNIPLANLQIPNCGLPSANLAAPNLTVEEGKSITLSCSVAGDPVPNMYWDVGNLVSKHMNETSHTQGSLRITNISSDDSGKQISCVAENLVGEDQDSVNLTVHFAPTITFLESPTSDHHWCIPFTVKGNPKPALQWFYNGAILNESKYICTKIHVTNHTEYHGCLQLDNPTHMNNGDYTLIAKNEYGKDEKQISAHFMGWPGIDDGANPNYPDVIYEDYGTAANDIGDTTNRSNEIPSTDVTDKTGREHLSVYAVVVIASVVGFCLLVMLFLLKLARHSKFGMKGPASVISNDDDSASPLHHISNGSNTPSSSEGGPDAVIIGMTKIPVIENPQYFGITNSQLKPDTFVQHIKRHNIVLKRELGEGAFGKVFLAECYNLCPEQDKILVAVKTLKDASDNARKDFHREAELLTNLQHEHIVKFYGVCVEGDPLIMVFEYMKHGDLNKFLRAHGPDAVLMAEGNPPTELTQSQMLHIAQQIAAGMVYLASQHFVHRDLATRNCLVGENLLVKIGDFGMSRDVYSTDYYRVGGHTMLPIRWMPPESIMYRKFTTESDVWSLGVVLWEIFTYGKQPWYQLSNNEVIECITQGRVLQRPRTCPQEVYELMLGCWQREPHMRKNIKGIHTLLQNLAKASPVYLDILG
T2 sequence (P68400 whole entry): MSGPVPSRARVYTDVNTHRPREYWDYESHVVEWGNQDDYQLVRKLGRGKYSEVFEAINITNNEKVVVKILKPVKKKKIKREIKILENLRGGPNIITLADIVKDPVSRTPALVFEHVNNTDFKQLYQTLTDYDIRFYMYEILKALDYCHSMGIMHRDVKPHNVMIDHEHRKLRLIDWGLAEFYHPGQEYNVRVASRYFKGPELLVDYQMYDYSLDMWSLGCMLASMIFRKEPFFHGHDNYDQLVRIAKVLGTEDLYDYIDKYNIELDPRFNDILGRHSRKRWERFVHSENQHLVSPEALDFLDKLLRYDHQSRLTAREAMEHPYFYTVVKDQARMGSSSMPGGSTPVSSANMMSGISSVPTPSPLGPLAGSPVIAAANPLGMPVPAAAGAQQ
T2 sequence (P67870 whole entry partner): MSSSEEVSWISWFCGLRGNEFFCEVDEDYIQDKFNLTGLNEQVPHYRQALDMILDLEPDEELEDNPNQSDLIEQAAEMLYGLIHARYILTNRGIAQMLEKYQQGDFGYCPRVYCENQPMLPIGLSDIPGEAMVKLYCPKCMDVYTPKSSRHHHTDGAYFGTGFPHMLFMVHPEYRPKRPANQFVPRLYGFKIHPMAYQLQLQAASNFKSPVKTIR

COc1ccc2ncnc(Nc3cccc(F)c3)c2c1 [5ay, N-(3-Fluorophenyl)-6-Methoxy-4-Quinazolinamine]
remaining activity at 10 µM (Ros(h); [1]): 101%
remaining activity at 10 µM (CK2(h); [1]): 75%
remaining activity at 10 µM (ULK3(h); [1]): 90%
remaining activity at 10 µM (TAK1(h); [1]): 74%
remaining activity at 10 µM (EphA2(h); [1]): 75%
remaining activity at 10 µM (TrkB(h); [1]): 96%
remaining activity at 10 µM (cKit(D816V)(h); [1]): 125%

Fc1ccc(CNc2ncnc3ccc(F)cc23)cc1 [5aa, 6-Fluoro-N-(4-fluorobenzyl)-4-Quinazolinamine]
remaining activity at 10 µM (Ros(h); [2]): 95%
remaining activity at 10 µM (CK2(h); [2]): 83%
remaining activity at 10 µM (ULK3(h); [2]): 96%
remaining activity at 10 µM (TAK1(h); [2]): 74%
remaining activity at 10 µM (EphA2(h); [2]): 73%
remaining activity at 10 µM (TrkB(h); [2]): 87%
remaining activity at 10 µM (cKit(D816V)(h); [2]): 105%

Fc1ccc2ncnc(NCCc3ccc(Cl)cc3)c2c1 [5at, N-[2-(4-Chlorophenyl)Ethyl]-6-Fluoro-4-Quinazolinamine]
remaining activity at 10 µM (Ros(h); [3]): 105%
remaining activity at 10 µM (CK2(h); [3]): 87%
remaining activity at 10 µM (ULK3(h); [3]): 93%
remaining activity at 10 µM (TAK1(h); [3]): 82%
remaining activity at 10 µM (EphA2(h); [3]): 99%
remaining activity at 10 µM (TrkB(h); [3]): 81%
remaining activity at 10 µM (cKit(D816V)(h); [3]): 98%

Fc1ccc(CCNc2ncnc3ccc(F)cc23)cc1 [5as, 6-Fluoro-N-[2-(4-Fluorophenyl)Ethyl]-4-Quinazolinamine]
remaining activity at 10 µM (Ros(h); [4]): 101%
remaining activity at 10 µM (CK2(h); [4]): 78%
remaining activity at 10 µM (ULK3(h); [4]): 92%
remaining activity at 10 µM (TAK1(h); [4]): 83%
remaining activity at 10 µM (EphA2(h); [4]): 90%
remaining activity at 10 µM (TrkB(h); [4]): 81%
remaining activity at 10 µM (cKit(D816V)(h); [4]): 111%
